Experimental data as given in patent publication EP4640206A1, “NISIN FOR INHIBITING BIOFILMS” (SkyLab AG, priority 2024, dated 2025).

Test system: S.mutans biofilms
Assay: Follow-up observation of pH of washes of a laboratory model of S. mutans biofilms in 10% sucrose
Type: cell-based, Streptococcus mutans
Description: Example No. 2. Follow-up observation of pH of washes of a laboratory model of S. mutans biofilms.
Inoculum of S.mutans control strain was prepared from an ampoule. The ampoule with the dried strain was opened sterilely over a drier or a tray. The upper end of the ampoule was heated on a burner flame, and paraffin was removed; then a piece of sterile absorbent cotton moistened in sterile water was carefully touched to the pulled end of the ampoule so that a small crack appeared, and the same wet cotton was passed around the tip of the ampoule. After the crack had formed, the end of the ampoule was removed with a light blow of tweezers. After opening the ampoule, 0.3-0.5 ml of heart-brain broth was sterilely poured in. After dissolution of the dry contents, the ampoule was transferred with a Pasteur pipette into tubes with 2 ml of heart-brain broth and grown at 37°C for 2 hours in a thermostat in 5% CO2 medium. To restore full viability, 1-2 passages on nutrient media appropriate for the microbes of the species were required. 2 Petri dishes with agar containing 5% horse blood were seeded with 0.1 ml of a 2-hour culture on heart-brain broth of the strain. Petri dishes were incubated at 37°C for 18 hours in an incubator containing 5% CO2. Gram stained smears were prepared from the grown colonies to assess the tinctorial, phenotypic properties and homogeneity of bacteria. Species membership was confirmed using MALDI-TOF reference bases.
Aqueous solutions of nisin in concentrations of 0.004 and 0.008% were taken as the working solutions for testing. […] Distilled water was used as a negative control. […] Urea was chosen due to its ability to alkalinize the environment in bacterial biofilms (Jadon et al., 2018). During the assay, a 10% sucrose solution was used, which is known to be readily metabolized by cariogenic bacteria to acid, thus contributing to the overall acidification of the medium.
The contents of the wells were extracted using an aspirator. All 6 wells of the first row were filled with 1 ml of deionized water and left for 5 min. The water was extracted with an aspirator; 1 ml of the test solution was added into the wells; in 1 min the component was removed, the wells were glazed for 1 min with deionized water, then it was removed. 250 µl of 10% sucrose was added to the wells and biofilms were scraped off the well walls with a disposable plastic loop. The resulting suspension was transferred by pipette into three Eppendorf tubes: contents of wells 1 and 2 into Eppendorf tube No. 1, contents of wells 3 and 4 into Eppendorf tube No. 2, contents of wells 5 and 6 into Eppendorf tube No. 3; next, the measurement of pH started immediately. Time points of the measurement are: 0, 1, 2, 3, 4, 5, 6, 7, 8, 9, 10, 15, 20, 30 min. After the test was finished, the electrode was washed and the described procedure was repeated for the next solution under study.

NC(N)=O [Urea, reference compound]
pH of mechanically disrupted S.mutans biofilms (Urea 0.5%, 10% sucrose, 0 min): 6.33±0.03 | pH of mechanically disrupted S.mutans biofilms (Urea 0.5%, 10% sucrose, 1 min): 6.32±0.006 | pH change (in brackets), S.mutans biofilms (Urea 0.5%, 10% sucrose, 1 min vs previous time point): -0.01 | pH of mechanically disrupted S.mutans biofilms (Urea 0.5%, 10% sucrose, 2 min): 6.22±0.01 | pH change (in brackets), S.mutans biofilms (Urea 0.5%, 10% sucrose, 2 min vs previous time point): -0.1 | pH of mechanically disrupted S.mutans biofilms (Urea 0.5%, 10% sucrose, 3 min): 6.15±0.006 | pH change (in brackets), S.mutans biofilms (Urea 0.5%, 10% sucrose, 3 min vs previous time point): -0.07 | pH of mechanically disrupted S.mutans biofilms (Urea 0.5%, 10% sucrose, 4 min): 6.09±0.006 | pH change (in brackets), S.mutans biofilms (Urea 0.5%, 10% sucrose, 4 min vs previous time point): -0.06 | pH of mechanically disrupted S.mutans biofilms (Urea 0.5%, 10% sucrose, 5 min): 6.06±0 | pH change (in brackets), S.mutans biofilms (Urea 0.5%, 10% sucrose, 5 min vs previous time point): -0.03 | pH of mechanically disrupted S.mutans biofilms (Urea 0.5%, 10% sucrose, 6 min): 6.04±0 | pH change (in brackets), S.mutans biofilms (Urea 0.5%, 10% sucrose, 6 min vs previous time point): -0.02 | pH of mechanically disrupted S.mutans biofilms (Urea 0.5%, 10% sucrose, 7 min): 6.02±0.006 | pH change (in brackets), S.mutans biofilms (Urea 0.5%, 10% sucrose, 7 min vs previous time point): -0.02 | pH of mechanically disrupted S.mutans biofilms (Urea 0.5%, 10% sucrose, 8 min): 6.0±0.01 | pH change (in brackets), S.mutans biofilms (Urea 0.5%, 10% sucrose, 8 min vs previous time point): -0.02 | pH of mechanically disrupted S.mutans biofilms (Urea 0.5%, 10% sucrose, 9 min): 5.93±0.02 | pH change (in brackets), S.mutans biofilms (Urea 0.5%, 10% sucrose, 9 min vs previous time point): -0.07 | pH of mechanically disrupted S.mutans biofilms (Urea 0.5%, 10% sucrose, 10 min): 5.83±0.02 | pH change (in brackets), S.mutans biofilms (Urea 0.5%, 10% sucrose, 10 min vs previous time point): -0.1 | pH of mechanically disrupted S.mutans biofilms (Urea 0.5%, 10% sucrose, 15 min): 5.74±0.02 | pH change (in brackets), S.mutans biofilms (Urea 0.5%, 10% sucrose, 15 min vs previous time point): -0.09 | pH of mechanically disrupted S.mutans biofilms (Urea 0.5%, 10% sucrose, 20 min): 5.46±0.02 | pH change (in brackets), S.mutans biofilms (Urea 0.5%, 10% sucrose, 20 min vs previous time point): -0.28 | pH of mechanically disrupted S.mutans biofilms (Urea 0.5%, 10% sucrose, 30 min): 5.24±0.006 | pH change (in brackets), S.mutans biofilms (Urea 0.5%, 10% sucrose, 30 min vs previous time point): -0.22 | Value of pH decrease within 30 min. of measurement (%) (Urea 0.5%, 10% sucrose, compared to the initial value): -17.22% | ability to stabilize pH in monospecies cariogenic biofilms (Urea in concentration of 0.5%, compared to the negative control): no ability to stabilize pH
